In patent publication US9763444B2, “Compositions and methods for repelling blood-sucking and biting insects, ticks and mites” (The United States of America, as represented by the …, priority 2013, dated 2017):

Experiments:
Ae. aegypti = test: MED of varying molar ratios of 2 and DEET (synergistic activity); type: in vivo, Aedes aegypti; conditions: Table 6, molar ratio 2:DEET; for Ae. aegypti Minimum Effective Dosage, Average: mean of 3 volunteers; for Ae. aegypti Minimum Effective Dosage, M4: subject M4; for Ae. aegypti Minimum Effective Dosage, M4 / Ae. aegypti Minimum Effective Dosage, M5 / Ae. aegypti Minimum Effective Dosage, M8: highest dose 4.0 mg/cm2; for Ae. aegypti Minimum Effective Dosage, M5: subject M5; for Ae. aegypti Minimum Effective Dosage, M8: subject M8
Description: Minimum Effective Dosage (MED) Test: The MED bioassays on treated cloth were a method of screening to determine the minimum amount of a repellent needed to prevent bites. Experimental compounds were prepared in solution by combining 0.15 g of experimental chemical with 2 mL of acetone in a 7.1 mL screwtop glass vial. […] The standard N,N-diethyl-3-methylbenzamide (DEET) was also tested at the same concentration levels to serve as a control and a comparison for relative repellency. A 50 cm^2 (5 cm×10 cm) patch of muslin cloth was rolled lengthwise and placed into each of the glass vials and scaled with a screwtop so it soaked up the solution. Just prior to the experiment, the pieces of treated cloth were removed from the vials, affixed to card stock tabs (5 cm×3 cm) with staples, and hung with masking tape on a rack to dry and allow acetone to evaporate. Volunteers wore a latex glove over their hands, a nylon stocking over their arm, and then wrapped a plastic Velcro-sealed sleeve over their entire forearm with a 32 cm^2 (4 cm×8 cm) window cut-out to allow mosquitoes to bite through. The nylon stocking acted as a barrier between the dried cloth and the skin, an additional precaution with experimental compounds. Dried cloth patches were stretched across the window in the plastic sleeve and held in place with masking tape. Volunteers placed their sleeve-covered arms into a screened cage for a one minute period with approximately 500 female Ae. aegypti mosquitoes that had been preselected for host-seeking behavior using a draw box (Posey, K. H., and C. E. Schreck, Mosquito News, 41: 566-568 (1981)). […] The MED recorded was the lowest passing concentration level tested for the experimental compound. […] All human volunteers in the study provided informed consent to participate of a protocol approved by the University of Florida Human Use Institutional Review Board (IRB #636-2005).
Compound 2 was also evaluated with DEET for synergistic activity. Test samples were prepared at varying molar ratios of DEET: 2 (1:0-1:[…]) and the MED values were evaluated (Table 6).

female Aedes aegypti = test: Knock down (KD) after forced contact with treated muslin cloth (insecticidal properties); type: in vivo; conditions: 2 min forced exposure to treated cloth
Description: The minimum effective dosage (MED) for repellency of 99% of mosquitoes was determined by wearing treated muslin cloth with varying concentrations of the chemical. At a surface concentration of 0.011 mg/cm^2, nearly all mosquitoes are repelled from the surface. The insecticidal properties required a much higher concentration of 2. All tests were conducted by forcing mosquitoes (5 per replicate×5 replicates) into contact with treated muslin cloth.

SMILES	Ae. aegypti Minimum Effective Dosage, Average (Ae. aegypti)	Ae. aegypti Minimum Effective Dosage, M4 (Ae. aegypti)	Ae. aegypti Minimum Effective Dosage, M5 (Ae. aegypti)	Ae. aegypti Minimum Effective Dosage, M8 (Ae. aegypti)	KD100 @ 1 h, surface concentration (female Aedes aegypti; knock down counted after 1 h)	KD100 @ 5 h, surface concentration (female Aedes aegypti; knock down counted after 5 h)	KD100 @ 8 h, surface concentration (female Aedes aegypti; knock down counted after 8 h)
CC1(C)C=Cc2c(CO)cccc2O1 [Compound 2]	0.0260 mg/cm^2	0.0156 mg/cm^2	0.0313 mg/cm^2	0.0313 mg/cm^2	15.38 mg/cm^2	7.69 mg/cm^2	0.96 mg/cm^2
CCN(CC)C(=O)c1cccc(C)c1 [DEET, N,N-diethyl-3-methylbenzamide, reference compound]	0.0313 mg/cm^2	0.0313 mg/cm^2	0.0313 mg/cm^2	0.0313 mg/cm^2			
